Assay results published in publication PMC11439681, “The identification of potent dual-target monopolar spindle 1 (MPS1) and histone deacetylase 8 (HDAC8) inhibitors through pharmacophore modeling, molecular docking, molecular dynamics simulations, and biological evaluation” (Frontiers in Pharmacology, 2024).

Tests used:
Experiment in all cases: In vitro selectivity assay
Format in all cases: biochemical
Settings in all cases: selectivity panel
ABL1 = molecular target: T1, ABL1 (Homo sapiens, UniProt P00519)
T1 construct: ICE Bioscience Inc. (assay service)
Procedure: (§1) The inhibitory effects of compound MPH-5 on a panel of 68 kinases and other histone deacetylases were evaluated to assess the selectivity profile of MPH-5. This experiment was conducted by ICE Bioscience Inc. (Beijing, China).

ABL2 = molecular target: T2, ABL2 (Homo sapiens, UniProt P42684)
T2 construct: ICE Bioscience Inc. (assay service)
Procedure: as §1

ALK = molecular target: T3, ALK (Homo sapiens, UniProt Q9UM73)
T3 construct: ICE Bioscience Inc. (assay service)
T3 sequence (Q9UM73 19-1620): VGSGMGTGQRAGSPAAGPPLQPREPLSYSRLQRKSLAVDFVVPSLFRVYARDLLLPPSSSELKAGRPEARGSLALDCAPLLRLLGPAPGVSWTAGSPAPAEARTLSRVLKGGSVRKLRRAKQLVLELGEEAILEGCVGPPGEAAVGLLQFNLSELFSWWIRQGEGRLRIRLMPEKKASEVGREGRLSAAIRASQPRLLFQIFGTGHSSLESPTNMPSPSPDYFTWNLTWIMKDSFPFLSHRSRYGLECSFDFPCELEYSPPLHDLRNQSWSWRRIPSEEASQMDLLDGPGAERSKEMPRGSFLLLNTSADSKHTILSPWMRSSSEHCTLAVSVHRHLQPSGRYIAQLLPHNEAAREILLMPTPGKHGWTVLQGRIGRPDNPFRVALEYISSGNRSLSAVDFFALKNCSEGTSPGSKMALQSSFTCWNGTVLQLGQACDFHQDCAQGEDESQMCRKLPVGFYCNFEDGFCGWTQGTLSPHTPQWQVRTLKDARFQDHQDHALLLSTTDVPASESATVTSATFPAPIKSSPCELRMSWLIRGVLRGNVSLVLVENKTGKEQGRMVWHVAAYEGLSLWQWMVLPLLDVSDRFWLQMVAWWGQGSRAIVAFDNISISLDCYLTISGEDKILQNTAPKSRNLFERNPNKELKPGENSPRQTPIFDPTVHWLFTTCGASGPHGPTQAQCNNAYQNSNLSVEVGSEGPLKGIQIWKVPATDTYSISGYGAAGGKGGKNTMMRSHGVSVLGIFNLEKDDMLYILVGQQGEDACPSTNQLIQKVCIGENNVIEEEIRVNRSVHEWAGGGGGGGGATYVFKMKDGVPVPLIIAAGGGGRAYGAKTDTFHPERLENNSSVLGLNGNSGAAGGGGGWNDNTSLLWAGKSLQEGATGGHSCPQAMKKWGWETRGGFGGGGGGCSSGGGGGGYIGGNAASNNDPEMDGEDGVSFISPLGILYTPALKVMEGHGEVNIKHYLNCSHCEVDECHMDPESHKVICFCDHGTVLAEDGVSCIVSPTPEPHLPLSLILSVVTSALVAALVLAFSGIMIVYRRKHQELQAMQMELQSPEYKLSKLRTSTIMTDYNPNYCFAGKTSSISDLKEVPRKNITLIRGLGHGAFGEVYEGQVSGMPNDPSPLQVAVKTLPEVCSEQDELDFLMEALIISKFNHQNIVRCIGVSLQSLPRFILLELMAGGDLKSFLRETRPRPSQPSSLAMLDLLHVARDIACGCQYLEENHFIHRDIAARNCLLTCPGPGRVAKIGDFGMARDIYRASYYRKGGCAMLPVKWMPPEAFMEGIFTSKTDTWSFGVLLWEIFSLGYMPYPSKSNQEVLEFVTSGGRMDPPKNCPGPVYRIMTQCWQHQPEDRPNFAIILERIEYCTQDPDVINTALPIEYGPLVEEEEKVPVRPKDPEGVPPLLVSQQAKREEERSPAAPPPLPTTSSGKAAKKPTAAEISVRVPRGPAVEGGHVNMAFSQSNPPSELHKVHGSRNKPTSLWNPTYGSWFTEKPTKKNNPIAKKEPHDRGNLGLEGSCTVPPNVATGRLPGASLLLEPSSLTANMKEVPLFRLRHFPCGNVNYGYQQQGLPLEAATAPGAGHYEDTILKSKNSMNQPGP
Procedure: as §1

CDK2 = molecular target: T4, CDK2 (Homo sapiens, UniProt P24941)
T4 construct: ICE Bioscience Inc. (assay service)
Procedure: as §1

DDR1 = molecular target: T5, DDR1 (Homo sapiens, UniProt Q08345)
T5 construct: ICE Bioscience Inc. (assay service)
T5 sequence (Q08345 19-913): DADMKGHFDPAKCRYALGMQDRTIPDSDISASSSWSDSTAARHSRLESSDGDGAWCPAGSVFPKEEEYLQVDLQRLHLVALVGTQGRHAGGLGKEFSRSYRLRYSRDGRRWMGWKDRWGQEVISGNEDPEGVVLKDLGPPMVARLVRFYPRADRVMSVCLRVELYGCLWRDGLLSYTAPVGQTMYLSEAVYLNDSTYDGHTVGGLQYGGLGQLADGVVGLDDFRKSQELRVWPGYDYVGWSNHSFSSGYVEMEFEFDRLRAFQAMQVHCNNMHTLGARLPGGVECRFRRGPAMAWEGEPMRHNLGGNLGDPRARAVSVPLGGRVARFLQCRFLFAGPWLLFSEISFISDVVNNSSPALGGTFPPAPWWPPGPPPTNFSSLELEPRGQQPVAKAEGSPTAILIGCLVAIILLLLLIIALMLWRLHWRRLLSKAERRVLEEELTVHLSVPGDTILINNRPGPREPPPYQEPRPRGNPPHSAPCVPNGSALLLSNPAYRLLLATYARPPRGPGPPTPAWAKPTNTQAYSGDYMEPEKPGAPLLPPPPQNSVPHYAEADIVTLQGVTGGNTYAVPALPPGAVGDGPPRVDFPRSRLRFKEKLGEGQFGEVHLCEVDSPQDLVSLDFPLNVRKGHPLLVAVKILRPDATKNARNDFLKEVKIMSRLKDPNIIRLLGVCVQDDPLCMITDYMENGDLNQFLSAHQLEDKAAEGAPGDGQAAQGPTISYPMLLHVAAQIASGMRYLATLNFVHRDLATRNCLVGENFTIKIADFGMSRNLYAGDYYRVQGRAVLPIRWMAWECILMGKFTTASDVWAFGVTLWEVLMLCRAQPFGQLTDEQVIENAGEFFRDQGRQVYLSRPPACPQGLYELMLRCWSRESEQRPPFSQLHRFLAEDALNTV
Procedure: as §1

DDR2 = molecular target: T6, DDR2 (Homo sapiens, UniProt Q16832)
T6 construct: ICE Bioscience Inc. (assay service)
Procedure: as §1

EPHA1 = molecular target: T7, EPHA1 (Homo sapiens, UniProt P21709)
T7 construct: ICE Bioscience Inc. (assay service)
Procedure: as §1

EPHA2 = molecular target: T8, EPHA2 (Homo sapiens, UniProt P29317)
T8 construct: ICE Bioscience Inc. (assay service)
Procedure: as §1

EPHA3 = molecular target: T9, EPHA3 (Homo sapiens, UniProt P29320)
T9 construct: ICE Bioscience Inc. (assay service)
T9 sequence (P29320 21-983): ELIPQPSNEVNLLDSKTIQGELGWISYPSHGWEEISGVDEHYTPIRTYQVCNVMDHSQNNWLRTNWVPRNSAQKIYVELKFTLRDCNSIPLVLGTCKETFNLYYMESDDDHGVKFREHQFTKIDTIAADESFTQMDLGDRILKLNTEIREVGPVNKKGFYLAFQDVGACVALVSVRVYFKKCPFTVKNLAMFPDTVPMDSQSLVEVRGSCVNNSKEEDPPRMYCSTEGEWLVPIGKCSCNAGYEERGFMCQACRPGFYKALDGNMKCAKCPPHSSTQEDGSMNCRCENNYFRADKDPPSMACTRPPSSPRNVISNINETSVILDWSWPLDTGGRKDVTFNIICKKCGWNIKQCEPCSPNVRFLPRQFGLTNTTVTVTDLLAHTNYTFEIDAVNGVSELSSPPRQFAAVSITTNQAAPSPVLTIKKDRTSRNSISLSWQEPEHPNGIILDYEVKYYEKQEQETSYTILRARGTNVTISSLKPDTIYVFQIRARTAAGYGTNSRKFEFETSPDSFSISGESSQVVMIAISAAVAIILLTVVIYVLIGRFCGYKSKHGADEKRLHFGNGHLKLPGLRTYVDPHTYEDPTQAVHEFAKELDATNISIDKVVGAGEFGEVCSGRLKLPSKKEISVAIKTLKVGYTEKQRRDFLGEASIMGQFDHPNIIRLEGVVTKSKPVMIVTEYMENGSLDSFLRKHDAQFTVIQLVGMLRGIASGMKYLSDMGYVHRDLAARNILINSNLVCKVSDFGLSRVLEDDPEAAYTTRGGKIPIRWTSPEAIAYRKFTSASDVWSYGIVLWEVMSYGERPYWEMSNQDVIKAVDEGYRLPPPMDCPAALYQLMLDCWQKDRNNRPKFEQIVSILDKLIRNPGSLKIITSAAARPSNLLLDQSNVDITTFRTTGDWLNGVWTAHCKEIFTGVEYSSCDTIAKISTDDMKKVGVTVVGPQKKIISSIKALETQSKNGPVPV
Procedure: as §1

EPHA4 = molecular target: T10, EPHA4 (Homo sapiens, UniProt P54764)
T10 construct: ICE Bioscience Inc. (assay service)
Procedure: as §1

EPHA8 = molecular target: T11, EPHA8 (Homo sapiens, UniProt P29322)
T11 construct: ICE Bioscience Inc. (assay service)
Procedure: as §1

EPHB2 = molecular target: T12, EPHB2 (Homo sapiens, UniProt P29323)
T12 construct: ICE Bioscience Inc. (assay service)
Procedure: as §1

EPHB3 = molecular target: T13, EPHB3 (Homo sapiens, UniProt P54753)
T13 construct: ICE Bioscience Inc. (assay service)
Procedure: as §1

EPHB4 = EPHB4 (Homo sapiens, UniProt P54760)
Procedure: as §1

ERBB2 = ERBB2 (Homo sapiens, UniProt P04626)
Procedure: as §1

ERBB4 = ERBB4 (Homo sapiens, UniProt Q15303)
Procedure: as §1

FGFR1 = FGFR1 (Homo sapiens, UniProt P11362)
Procedure: as §1

FGFR2 = FGFR2 (Homo sapiens, UniProt P21802)
Procedure: as §1

FGFR3 = FGFR3 (Homo sapiens, UniProt P22607)
Chain of FGFR3 (P22607 23-806): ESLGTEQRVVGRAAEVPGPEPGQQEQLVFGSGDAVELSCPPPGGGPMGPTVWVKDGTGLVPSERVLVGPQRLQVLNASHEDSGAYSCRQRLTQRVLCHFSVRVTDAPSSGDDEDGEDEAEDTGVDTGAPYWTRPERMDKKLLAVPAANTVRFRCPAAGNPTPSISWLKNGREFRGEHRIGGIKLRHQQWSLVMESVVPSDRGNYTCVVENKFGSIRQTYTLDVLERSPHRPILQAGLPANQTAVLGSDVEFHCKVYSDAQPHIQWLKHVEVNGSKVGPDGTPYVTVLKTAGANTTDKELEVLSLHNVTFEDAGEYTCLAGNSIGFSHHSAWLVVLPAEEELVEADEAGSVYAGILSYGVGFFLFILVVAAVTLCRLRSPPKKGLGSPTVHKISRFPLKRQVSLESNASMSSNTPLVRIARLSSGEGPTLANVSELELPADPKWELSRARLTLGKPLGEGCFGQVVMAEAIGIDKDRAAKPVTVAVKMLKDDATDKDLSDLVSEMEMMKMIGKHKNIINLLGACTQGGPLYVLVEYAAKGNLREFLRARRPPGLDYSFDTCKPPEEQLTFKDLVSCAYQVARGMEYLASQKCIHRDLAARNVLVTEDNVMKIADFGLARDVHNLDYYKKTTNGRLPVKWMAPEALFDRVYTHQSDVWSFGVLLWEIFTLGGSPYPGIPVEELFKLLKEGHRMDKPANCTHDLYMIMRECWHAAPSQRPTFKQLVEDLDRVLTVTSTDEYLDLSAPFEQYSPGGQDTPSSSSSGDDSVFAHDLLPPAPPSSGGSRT
Procedure: as §1

FGFR4 = FGFR4 (Homo sapiens, UniProt P22455)
Procedure: as §1

FGR = FGR (Homo sapiens, UniProt P09769)
Procedure: as §1

FRK = FRK (Homo sapiens, UniProt P42685)
Procedure: as §1

FYN = FYN (Homo sapiens, UniProt P06241)
Procedure: as §1

HDAC5 = molecular target: T14, HDAC5 (Homo sapiens, UniProt Q9UQL6)
T14 construct: ICE Bioscience Inc. (contract assay provider)
Procedure: as §1

INSR = INSR (Homo sapiens, UniProt P06213)
Procedure: as §1

INSRR = INSRR (Homo sapiens, UniProt P14616)
Procedure: as §1

ITK = ITK (Homo sapiens, UniProt Q08881)
Procedure: as §1

JAK2 = JAK2 (Homo sapiens, UniProt O60674)
Procedure: as §1

KDR = molecular target: T15, KDR (Homo sapiens, UniProt P35968)
T15 construct: ICE Bioscience Inc. (contract assay provider)
Procedure: as §1

KIT = molecular target: T16, KIT (Homo sapiens, UniProt P10721)
T16 construct: ICE Bioscience Inc. (contract assay provider)
Procedure: as §1

LTK = molecular target: T17, LTK (Homo sapiens, UniProt P29376)
T17 construct: ICE Bioscience Inc. (contract assay provider)
Procedure: as §1

MUSK = molecular target: T18, MUSK (Homo sapiens, UniProt O15146)
T18 construct: ICE Bioscience Inc. (contract assay provider)
T18 sequence (O15146 24-869): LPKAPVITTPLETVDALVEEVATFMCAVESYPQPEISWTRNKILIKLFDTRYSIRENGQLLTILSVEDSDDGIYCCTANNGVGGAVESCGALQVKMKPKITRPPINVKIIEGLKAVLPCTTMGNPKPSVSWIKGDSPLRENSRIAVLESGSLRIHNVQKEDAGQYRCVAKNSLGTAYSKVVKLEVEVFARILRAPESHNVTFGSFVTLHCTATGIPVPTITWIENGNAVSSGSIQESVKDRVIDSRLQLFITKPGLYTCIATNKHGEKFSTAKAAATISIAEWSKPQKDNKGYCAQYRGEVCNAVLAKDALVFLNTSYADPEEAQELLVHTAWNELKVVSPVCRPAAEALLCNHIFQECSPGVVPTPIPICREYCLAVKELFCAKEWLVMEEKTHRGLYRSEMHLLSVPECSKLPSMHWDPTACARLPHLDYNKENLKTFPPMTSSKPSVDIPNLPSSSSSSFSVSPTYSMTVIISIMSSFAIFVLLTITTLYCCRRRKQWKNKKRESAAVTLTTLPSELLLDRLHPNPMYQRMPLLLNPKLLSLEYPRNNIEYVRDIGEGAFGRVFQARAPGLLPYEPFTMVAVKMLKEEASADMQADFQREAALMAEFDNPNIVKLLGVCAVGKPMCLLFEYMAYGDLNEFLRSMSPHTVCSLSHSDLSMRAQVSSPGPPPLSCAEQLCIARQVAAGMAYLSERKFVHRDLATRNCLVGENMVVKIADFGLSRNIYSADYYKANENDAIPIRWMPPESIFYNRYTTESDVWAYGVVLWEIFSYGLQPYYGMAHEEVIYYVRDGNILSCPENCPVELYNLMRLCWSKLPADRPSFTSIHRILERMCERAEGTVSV
Procedure: as §1

NTRK1 = molecular target: T19, NTRK1 (Homo sapiens, UniProt P04629)
T19 construct: ICE Bioscience Inc. (contract assay provider)
Procedure: as §1

NTRK2 = molecular target: T20, NTRK2 (Homo sapiens, UniProt Q16620)
T20 construct: ICE Bioscience Inc. (contract assay provider)
Procedure: as §1

NTRK3 = molecular target: T21, NTRK3 (Homo sapiens, UniProt Q16288)
T21 construct: ICE Bioscience Inc. (contract assay provider)
Procedure: as §1

PDGFRA = molecular target: T22, PDGFRA (Homo sapiens, UniProt P16234)
T22 construct: ICE Bioscience Inc. (contract assay provider)
Procedure: as §1

PDGFRB = molecular target: T23, PDGFRB (Homo sapiens, UniProt P09619)
T23 construct: ICE Bioscience Inc. (contract assay provider)
Procedure: as §1

PTK2 = molecular target: T24, PTK2 (Homo sapiens, UniProt Q05397)
T24 construct: ICE Bioscience Inc. (contract assay provider)
Procedure: as §1

PTK2B = molecular target: T25, PTK2B (Homo sapiens, UniProt Q14289)
T25 construct: ICE Bioscience Inc. (contract assay provider)
Procedure: as §1

PTK6 = molecular target: T26, PTK6 (Homo sapiens, UniProt Q13882)
T26 construct: ICE Bioscience Inc. (contract assay provider)
Procedure: as §1

RET = molecular target: T27, RET (Homo sapiens, UniProt P07949)
T27 construct: ICE Bioscience Inc. (contract assay provider)
Procedure: as §1

SRC = molecular target: T28, SRC (Homo sapiens, UniProt P12931)
T28 construct: ICE Bioscience Inc. (contract assay provider)
Procedure: as §1

YES1 = YES1 (Homo sapiens, UniProt P07947)
Procedure: as §1

Measured: IC50

Cn1cc(-c2cc3cnc(Nc4ccc(-c5cncn5/C=C/C(=O)NO)cc4Cl)cc3n2C(=O)OC(C)(C)C)cn1 [MPH-5]
> 10 µM: all assays above
